Test results as given in US20260224555A1, “NEW PHENYLQUINOLONE COMPOUND HAVING ANTIBACTERIAL AND ANTI-CANCER FUNCTIONS AND PREPARATION THEREOF” (AlphaMol Science Ltd (Shanghai), priority 2022, published 2026).
Values after ≈ are worked out from the molar mass of the structure shown. Read-outs that look alike come from different tables or passages of the source. Values belong to the compound of their own block, whether it stands above or below them.

Assays:
E. coli ATCC 25922 = experiment: In vitro antibacterial activity assay (MIC, broth dilution); type: cell-based; details: Escherichia coli
Text: (§1) The method used to indicate the activity of the compounds in this example is to record the minimum inhibitory concentration (MIC) of the compounds against bacteria. The specific experimental method is as follows:
(§2) 1. The bacterial liquid cultured from a single colony was taken, and diluted into autoclaved CAMHB broth in a ratio of 1:1000, and mixed well.
(§3) 2. The prepared drug solution was filtered through a sterile 0.22 µm syringe filter and placed in a sterile EP tube for later use.
(§4) 3. A 96-well plate was taken, and 20 µL of drug solution ([…]) was added to each well in the first column of the 96-well plate. Then, 180 µL of diluted bacterial liquid was added and mixed well (Perform 3 replicate rows for each drug).
(§5) The same process was performed for the hydrochloride drug.
(§6) 4. 100 μL of diluted bacterial liquid was added to each well in the remaining 11 columns of the 96-well plate. Drugs are the same as above.
(§7) 5. Serial dilution: 100 μL of liquid was taken from the first column to the second column, mixed well, then 100 μL of liquid was taken from the second column to the third column, mixed well, and so on, sequentially diluting down to the last column (column 12). After mixing column 12 well, 100 μL of liquid thereof was discarded. The drug concentration in each well was decreased by two-fold serially (the concentration in the first well is 40 μg/mL).
(§8) 6. Blank CAMHB broth without added bacteria liquid was added to 3 blank wells in the 96-well plate, as negative control.
(§9) 7. The diluted bacterial liquid was added to 3 blank wells in the 96-well plate, as positive control.
(§10) 8. Incubated at 37° C. for 16 hours.
(§11) 9. Results reading: the minimum inhibitory concentration is the minimum drug concentration at which no bacterial growth is visible to the naked eye and without turbidity.

S. aureus ATCC 43300 = experiment: as above; type: cell-based; details: Staphylococcus aureus
Text: as §1, §2, §3, §4, §5, §6, §7, §8, §9, §10, §11

Hela = experiment: In vitro anticancer activity test (MTT cell proliferation); type: cell-based; details: Homo sapiens, read-out: Hela Average inhibition rate %
Description: The anticancer activity of the compounds was tested using an in vitro cancer cell tests. The specific test method is as follows:
1. Cell recovery and culture method: the cryovial was taken out from the liquid nitrogen container firstly, soaked directly in 37° C. warm water, and shaked from time to time to let it thaw as soon as possible. Then, the cryovial was transferred to a clean bench, and the lid was open. The cell suspension was taken into a centrifuge tube using a rubber-tipped dropper and more than 10 times the culture medium was added, mixed well, and centrifuged at 50 g for 5 minutes. Then, the supernatant was discarded, complete culture medium containing 10% fetal bovine serum was added to resuspend the cells, the cells was counted, the cell density was adjusted, and then inoculated into a culture bottle. The culture bottle was placed in a cell culture incubator at 5% CO2 and 37° C. The complete culture medium was replaced once the next day and the culture was continued.
2. Cell passaging method: adherent cells in the logarithmic growth phase were placed in a clean bench, the original culture medium was discarded, and washed three times with 1×PBS. An appropriate amount of 0.25% trypsin digestion solution was added to moisten the cells, and then the trypsin solution was aspirated. The cells were placed in a cell culture incubator at 5% CO2 and 37° C. for digestion for a suitable time, and observed under a microscope. When 90% of the cells become round, the cells were moved immediately to the clean bench and complete culture medium was added to terminate digestion. Then, the cells were dislodged by pipetting up and down with a rubber-tipped dropper to single cells. The cells were counted, and the cell density was adjusted. The cells were inoculated into a suitable culture bottle or dish, added enough complete culture medium, and placed in a cell culture incubator at 5% CO2 and 37° C. for static culture.
For suspension cells in the logarithmic phase, the original culture medium was directly centrifuged at 50 g for 5 minutes, the supernatant was discarded, and the cells were washed once with PBS and centrifuged. After discarding the supernatant, the complete culture medium was added and the cells were dispersed using a rubber-tipped dropper. The cells are counted, and the cell density was adjusted. The cells were inoculated into appropriate culture bottles or culture dishes, and sufficient complete culture medium was added, and the cells were cultured in a cell culture incubator at 5% CO2 and 37° C.
3. Cell proliferation assay: cells in good state in logarithmic phase were taken and appropriate amount of the cells was inoculated into 96-well plates according to the cell passage treatment method, with each well containing 180 μL complete medium. After the cells growth was recovered and the number of cells in each well is 5000±500, a drug was added for treatment.
After drug treatment during the experimental time, MTT solution with a final concentration of 0.5 mg/mL was added to each well, and placed in a cell culture incubator at 5% CO2 and 37° C. to allow a fully reaction of MTT with cells. After 4 hours, the solution in the 96-well plate was discarded, 100 µL of DMSO was added, and shaked to dissolve the formazan precipitated at the bottom of the plate, and the absorbance value of samples was detected at a wavelength of 570 nm using a microplate reader. Calculation method of cell viability rate:
Table 4 lists some compounds that have inhibitory effects against both of bacteria and cancer cells. In the table, the inhibitory effects against cancer cells are shown: the average proliferation inhibition rate (%) against cancer cells at the dosage of 40 μM.

[1] = test system: Staphylococcus aureus ATCC43300; experiment: Resistance test of bacteria against compounds (serial induction, 21 days); type: cell-based; details: period of 21 days, S. aureus ATCC43300
Description: This example provides a resistance test of bacteria against compounds, and the specific experimental method is as follows.
1. […] It was ensured that among the 6 final concentrations of the drug diluted into the wells, some were higher than the original MIC of the bacteria and some were lower than the original MIC of the bacteria.
2. Preparation of bacterial liquid: 10 mL of culture medium was taken and added to a sterilized plate using a pipette, then 100 µL of the above-mentioned passaged bacterial liquid was added, and mixed well for later use.
3. The above-mentioned diluted bacterial liquid was taken and added to a 96-well plate using a pipette, 180 μL per well, 3 wells per group, 6 groups in total. 20 μL of drug solution was added to each well (note: it is necessary to replace the pipette tip each time the drug is added), so that the final drug concentrations were […], respectively. The well with 200 μL of diluted bacterial liquid was used as the positive control well, and the well with 200 μL of culture medium was used as the negative control well.
The test object was Staphylococcus aureus (S. aureus).

[2] = test system: methicillin-resistant Staphylococcus aureus; type: in vivo, Kunming mice; details: for reduction of necrosis area compared with the control group: 4 consecutive days, MRSA skin infection in mice
Description: Kunming mice (20±2 g) were anesthetized with chloral hydrate and shaved, and then 50 μL of 4×10^7 CFU/mL of methicillin-resistant Staphylococcus aureus was subcutaneously injected. One day later, 100 μL of 0.02, 2 and 200 mg/kg of Example 34 were subcutaneously injected respectively, and 100 μL of normal saline was injected for the control group. The drug was administered for consecutive 4 days, and mice were euthanized on the 5th day, and the area of abscess was measured.

[3] = ATCC25922, Table 3, read-out: MIC E. coli ATCC 25922
[4] = ATCC43300, Table 3, read-out: MIC S. aureus ATCC 43300
[5] = ATCC25922, Table 4, read-out: E. coli ATCC 25922 MIC
[6] = ATCC43300, Table 4, read-out: S. aureus ATCC 43300 MIC
[7] = average proliferation inhibition rate at the dosage of 40 μM

Compound: CN[C@H](CC(C)C)C(=O)N[C@H]1C(=O)N[C@@H](CC(N)=O)C(=O)N[C@H]2C(=O)N[C@H]3C(=O)N[C@H](C(=O)N[C@H](C(=O)O)c4cc(O)cc(O)c4-c4cc3ccc4O)[C@H](O)c3ccc(c(Cl)c3)Oc3cc2cc(c3O[C@@H]2O[C@H](CO)[C@@H](O)[C@H](O)[C@H]2O[C@H]2C[C@](C)(N)[C@H](O)[C@H](C)O2)Oc2ccc(cc2Cl)[C@H]1O [vancomycin]
- MIC at the end of the resistance experiment [1]: 4 µg/mL

Compound: CCCCCNS(=O)(=O)c1ccc(-c2c(F)cc3c(=O)c(C(=O)O)cn(C4CC4)c3c2OC)cc1 [Example 80]
- MIC (E. coli ATCC 25922; [3]): 0.1 to 1 µg/mL (≈ 0.199 to 1.99 µM)
- MIC (E. coli ATCC 25922; [5]): ≤ 1 µg/mL
- MIC (S. aureus ATCC 43300; [4]): ≤ 0.1 µg/mL
- MIC (S. aureus ATCC 43300; [6]): ≤ 1 µg/mL
- inhibition at 40 µM (Hela; [7]): ≥ 50%

Compound: Nc1cnc(-c2cc3c(cc2F)c(=O)c(C(=O)O)cn3C2CC2)cc1F [Example 91]
- MIC (E. coli ATCC 25922; [3]): 0.1 to 1 µg/mL (≈ 0.28 to 2.8 µM)
- MIC (S. aureus ATCC 43300; [4]): 0.1 to 1 µg/mL (≈ 0.28 to 2.8 µM)

Compound: CC(=O)Nc1ccc(-c2cc3c(cc2F)c(=O)c(C(=O)O)cn3C2CC2)nc1 [Example 93]
- MIC (E. coli ATCC 25922; ATCC25922, read-out: E. coli ATCC 25922 MIC): ≤ 1 µg/mL
- MIC (E. coli ATCC 25922; ATCC25922, read-out: MIC E. coli ATCC 25922): 0.1 to 1 µg/mL (≈ 0.262 to 2.62 µM)
- MIC (S. aureus ATCC 43300; ATCC43300, read-out: MIC S. aureus ATCC 43300): 0.1 to 1 µg/mL (≈ 0.262 to 2.62 µM)
- MIC (S. aureus ATCC 43300; ATCC43300, read-out: S. aureus ATCC 43300 MIC): ≤ 1 µg/mL
- inhibition at 40 µM (Hela): ≥ 20%

Compound: O=C(O)c1cn(C2CC2)c2cc(-c3ccc(S(=O)(=O)NCCCCCCO)cc3)c(F)cc2c1=O [Example 29, 1-cyclopropyl-6-fluoro-7-(4-(N-(6-hydroxyhexyl)sulfamoyl)phenyl)-4-oxo-1,4-dihydroquinolin-3-carboxylic acid]
- reduction of necrosis area compared with the control group ([2]; 0.02 mg/kg subcutaneous): 78.09%
- reduction of necrosis area compared with the control group ([2]; 2 mg/kg subcutaneous): 81.21%
- antibacterial effect in skin infection model ([2]; (corresponding to 0.02 mg/kg, 200 mg/kg)): good antibacterial effect
- observation at the subcutaneous administration site ([2]; mouse, in vivo, sc, 200 mg/kg): certain bleeding symptom in body surface appeared at the subcutaneous administration site

Compound: Nc1cnc(-c2cc3c(cc2F)c(=O)c(C(=O)O)cn3C2CC2)nc1 [Example 83]
- MIC (E. coli ATCC 25922; [3]): 0.1 to 1 µg/mL (≈ 0.294 to 2.94 µM)
- MIC (S. aureus ATCC 43300; [4]): 0.1 to 1 µg/mL (≈ 0.294 to 2.94 µM)

Compound: CS(=N)(=O)c1ccc(-c2cc3c(cc2F)c(=O)c(C(=O)O)cn3C2CC2)cc1 (stereo not shown) [Example 64]
- MIC (E. coli ATCC 25922; [3]): 0.1 to 1 µg/mL (≈ 0.25 to 2.5 µM)
- MIC (S. aureus ATCC 43300; [4]): 0.1 to 1 µg/mL (≈ 0.25 to 2.5 µM)

Compound: O=C(O)c1cn(C2CC2)c2cc(-c3ccnc(NC(=O)C(F)(F)F)c3)c(F)cc2c1=O [Example 57]
- MIC (E. coli ATCC 25922; [3]): 0.1 to 1 µg/mL (≈ 0.23 to 2.3 µM)
- MIC (S. aureus ATCC 43300; [4]): 0.1 to 1 µg/mL (≈ 0.23 to 2.3 µM)

Continued, in another order:

- MIC (E. coli ATCC 25922; [3]): 0.1 to 1 µg/mL (≈ 0.186 to 1.86 µM)
- MIC (S. aureus ATCC 43300; [4]): 0.1 to 1 µg/mL (≈ 0.186 to 1.86 µM)
Compound: N#Cc1cc(-c2cc3c(cc2F)c(=O)c(C(=O)O)cn3C2CC2)ccc1S(=O)(=O)NCCCC(F)(F)F [Example 111]

- MIC (E. coli ATCC 25922; [3]): 0.1 to 1 µg/mL (≈ 0.224 to 2.24 µM)
- MIC (E. coli ATCC 25922; [5]): ≤ 1 µg/mL
- MIC (S. aureus ATCC 43300; [4]): ≤ 0.1 µg/mL
- MIC (S. aureus ATCC 43300; [6]): ≤ 1 µg/mL
Compound: COc1c(-c2ccc([S+]([O-])CCO)cc2)c(F)cc2c(=O)c(C(=O)O)cn(C3CC3)c12 (stereo not shown) [Example 86]
- inhibition at 40 µM (Hela; [7]): ≥ 20%

- MIC (E. coli ATCC 25922; [3]): ≤ 0.1 µg/mL
- MIC (E. coli ATCC 25922; [5]): ≤ 1 µg/mL
- MIC (S. aureus ATCC 43300; [4]): ≤ 0.1 µg/mL
- MIC (S. aureus ATCC 43300; [6]): ≤ 1 µg/mL
Compound: O=C(O)c1cn(C2CC2)c2cc(-c3ccc4c(c3)S(=O)(=O)NC4)c(F)cc2c1=O [Example 113]
- inhibition at 40 µM (Hela; [7]): ≥ 20%

- MIC (E. coli ATCC 25922; [3]): ≤ 0.1 µg/mL
- MIC (S. aureus ATCC 43300; [4]): ≤ 0.1 µg/mL
Compound: O=C(CCl)Nc1cnc(-c2cc3c(cc2F)c(=O)c(C(=O)O)cn3C2CC2)cn1 [Example 96]
